Test results published in PubChem BioAssay AID1259407 (Chemical Carcinogenesis Research Information System (CCRIS), 2018).
Activity calls are given as the source filed them. The rule behind the calls is not given here.

Tested on: CCRIS mutagenicity, Ames/micronucleus/aberration tests
Assay: CCRIS mutagenicity studies

Measured: mutagenic call

O=S(=O)(c1ccc(O)cc1)c1ccc(O)cc1
inactive: Test System: AMES SALMONELLA TYPHIMURIUM, Strain/Indicator: TA98, Metabolic Activation: HAMSTER, LIVER, S-9, AROCLOR 1254 (10%), Method: STANDARD PLATE inactive; negative | Test System: AMES SALMONELLA TYPHIMURIUM, Strain/Indicator: TA98, Metabolic Activation: NONE, Method: PREINCUBATION inactive; negative | Test System: AMES SALMONELLA TYPHIMURIUM, Strain/Indicator: TA98, Metabolic Activation: NONE, Method: STANDARD PLATE inactive; negative | Test System: AMES SALMONELLA TYPHIMURIUM, Strain/Indicator: TA98, Metabolic Activation: RAT LIVER S-9, PHENOBARBITAL AND BETA-NAPHTHOFLAVONE, Method: PREINCUBATION inactive; negative | Test System: AMES SALMONELLA TYPHIMURIUM, Strain/Indicator: TA98, Metabolic Activation: RAT, LIVER, S-9, AROCLOR 1254 (10%), Method: STANDARD PLATE inactive; negative | Test System: AMES SALMONELLA TYPHIMURIUM, Strain/Indicator: TA100, Metabolic Activation: HAMSTER, LIVER, S-9, AROCLOR 1254 (10%), Method: STANDARD PLATE inactive; negative | Test System: AMES SALMONELLA TYPHIMURIUM, Strain/Indicator: TA100, Metabolic Activation: NONE, Method: PREINCUBATION inactive; negative | Test System: AMES SALMONELLA TYPHIMURIUM, Strain/Indicator: TA100, Metabolic Activation: NONE, Method: STANDARD PLATE inactive; negative | Test System: AMES SALMONELLA TYPHIMURIUM, Strain/Indicator: TA100, Metabolic Activation: RAT LIVER S-9, PHENOBARBITAL AND BETA-NAPHTHOFLAVONE, Method: PREINCUBATION inactive; negative | Test System: AMES SALMONELLA TYPHIMURIUM, Strain/Indicator: TA100, Metabolic Activation: RAT, LIVER, S-9, AROCLOR 1254 (10%), Method: STANDARD PLATE inactive; negative | Test System: AMES SALMONELLA TYPHIMURIUM, Strain/Indicator: TA1535, Metabolic Activation: HAMSTER, LIVER, S-9, AROCLOR 1254 (10%), Method: STANDARD PLATE inactive; negative | Test System: AMES SALMONELLA TYPHIMURIUM, Strain/Indicator: TA1535, Metabolic Activation: NONE, Method: PREINCUBATION inactive; negative | Test System: AMES SALMONELLA TYPHIMURIUM, Strain/Indicator: TA1535, Metabolic Activation: NONE, Method: STANDARD PLATE inactive; negative | Test System: AMES SALMONELLA TYPHIMURIUM, Strain/Indicator: TA1535, Metabolic Activation: RAT LIVER S-9, PHENOBARBITAL AND BETA-NAPHTHOFLAVONE, Method: PREINCUBATION inactive; negative | Test System: AMES SALMONELLA TYPHIMURIUM, Strain/Indicator: TA1535, Metabolic Activation: RAT, LIVER, S-9, AROCLOR 1254 (10%), Method: STANDARD PLATE inactive; negative | Test System: AMES SALMONELLA TYPHIMURIUM, Strain/Indicator: TA1537, Metabolic Activation: HAMSTER, LIVER, S-9, AROCLOR 1254 (10%), Method: STANDARD PLATE inactive; negative | Test System: AMES SALMONELLA TYPHIMURIUM, Strain/Indicator: TA1537, Metabolic Activation: NONE, Method: PREINCUBATION inactive; negative | Test System: AMES SALMONELLA TYPHIMURIUM, Strain/Indicator: TA1537, Metabolic Activation: NONE, Method: STANDARD PLATE inactive; negative | Test System: AMES SALMONELLA TYPHIMURIUM, Strain/Indicator: TA1537, Metabolic Activation: RAT LIVER S-9, PHENOBARBITAL AND BETA-NAPHTHOFLAVONE, Method: PREINCUBATION inactive; negative | Test System: AMES SALMONELLA TYPHIMURIUM, Strain/Indicator: TA1537, Metabolic Activation: RAT, LIVER, S-9, AROCLOR 1254 (10%), Method: STANDARD PLATE inactive; negative | Test System: AMES SALMONELLA TYPHIMURIUM, Strain/Indicator: TA1538, Metabolic Activation: HAMSTER, LIVER, S-9, AROCLOR 1254 (10%), Method: STANDARD PLATE inactive; negative | Test System: AMES SALMONELLA TYPHIMURIUM, Strain/Indicator: TA1538, Metabolic Activation: NONE, Method: STANDARD PLATE inactive; negative | Test System: AMES SALMONELLA TYPHIMURIUM, Strain/Indicator: TA1538, Metabolic Activation: RAT, LIVER, S-9, AROCLOR 1254 (10%), Method: STANDARD PLATE inactive; negative | Test System: E. COLI, Strain/Indicator: WP2UVRA, Metabolic Activation: NONE, Method: PREINCUBATION inactive; negative | Test System: E. COLI, Strain/Indicator: WP2UVRA, Metabolic Activation: RAT LIVER S-9, PHENOBARBITAL AND BETA-NAPHTHOFLAVONE, Method: PREINCUBATION inactive; negative | Test System: MOUSE LYMPHOMA, Strain/Indicator: L5178Y (TK+/TK-), Metabolic Activation: NONE, Method: SUSPENSION/PLATE inactive; positive. reevaluation of results: negative | Test System: MOUSE LYMPHOMA, Strain/Indicator: L5178Y (TK+/TK-), Metabolic Activation: RAT, LIVER, S-9, AROCLOR 1254, Method: SUSPENSION/PLATE inactive; negative
